# What was measured:
# C1q = target: T1, C1q (Homo sapiens, UniProt P02745+P02746+P02747); test: FITC C1q binding to reagent-coated Ramos B cells in normal human serum; settings: normal human serum 1.25-10%, FIG. 3A
# T1 construct: normal human serum (NHS, #A113, Quidel Corp., San Diego, Calif.); tissue Quidel Corp. A113; host or cells: normal human serum (purchased), added to reagent-coated Ramos B cells
# Protocol: C1q binding studies were performed as previously described (Cragg et al., Blood 2004, 103:2738-2743). Briefly, Ramos B-cells in Iscoves media (#12440-053, Gibco/Invitrogen, Grand island, NY) with no serum were plated in 96-well V bottom plates at 5×10^5/well in 100 μl. Cells were incubated with reagents for 15 minutes at 37° C., and normal human serum (NHS, #A113, Quidel Corp., San Diego, Calif.) diluted in Iscoves was then added at a volume of 50 μl to each well for a final concentration of 10, 5, 2.5, or 1.25% human serum. Fifty μl of media was added to the control well. For cobra venom factor (CVF) experiments, CVF was added to human serum complement samples at 20 Units CVF/mL of serum for 90 minutes at 37° C. prior to addition of serum to complement assays, and the dilution of serum by CVF accounted for when making sample dilutions.
# The cells plus complement source were incubated for an additional 5 minutes at 37° C., and washed 2 times with cold PBS (#14040-133, Gibco/Invitrogen, Grand Island, N.Y.) via centrifugation and resuspended in 100 μl of PBS. Fifty μl from each well was transferred to a second plate for second step control staining. […] Samples were washed, resuspended in cold PBS, and read immediately on a FACsCalibur flow cytometer and analyzed with Cell Quest software (Becton Dickinson, San Jose, Calif.).
# Ramos B cells = test: CDC assay, Ramos B cells with human serum complement, propidium iodide; format: cell-based; settings: Ramos B cells, human serum
# Protocol: (§1) The cells were incubated 60 minutes at 37° C. […] Samples were incubated 15 minutes at room temperature in the dark prior to analysis by flow cytometry using a FACsCalibur and CellQuest software (Becton Dickinson).
# as §1
# BJAB cells = test: Annexin V/PI apoptosis analysis, BJAB; format: cell-based
# Protocol: Experiments examining the effect of B cell targeted SMIPS on B cell line apoptosis were performed. Each SMIP was tested individually and then in combination. Samples were analyzed at both 24 and 48 hours after initiation of incubation reactions. […] In addition, 20 μg/mL goat anti-human IgG was added to reactions in order to cross link reagents on the cell surface. Cells were then stained with Annexin V-FITC and propidium iodide using the BD Pharmigen Apoptosis Detection Kit I (#556547), and processed according to kit instructions. Briefly, cells were washed twice with cold PBS and resuspended in “binding buffer” at 1×10^6 cells/mL. One hundred microliters of the cells in binding buffer were then stained with 5 μl of Annexin V-FITC and 5 μl of propidium iodide. The cells were gently vortexed and incubated in the dark at room temperature for 15 minutes. Four hundred microliters of binding buffer was then added to each sample. They were then read and analyzed on a FACsCalibur (Becton Dickinson) instrument using Cell Quest software (Becton Dickinson).
# DHL-4 B cells = test: CDC assay on DHL-4 B cells; format: cell-based; settings: FIG. 7
# Protocol: Cells were suspended in Iscoves (#12440-053, Gibco/Invitrogen, Granland, N.Y.) at 5×10E^5 cells/well in 75 μl. […] Binding reactions were allowed to proceed for 45 minutes prior to centrifugation and washing in serum free Iscoves. Cells were resuspended in Iscoves with human serum (#A113, Quidel, San Diego, Calif.) at the indicated concentrations. The cells were incubated 60 minutes at 37° C. Cells were washed by centrifugation and resuspended in 125 μl PBS with 2% FBS (#16140-071, Gibco, Invitrogen, Grand Island, N.Y.), staining media. The cells were transferred to FACS cluster tubes (#4410, CoStar, Corning, N.Y.) and 125 μl staining media with 5 μl propidium iodide (PI, #P-16063, Molecular Probes, Eugene Oreg.) was added. Samples were incubated 15 minutes at room temperature in the dark prior to analysis by flow cytometry using a FACsCalibur and CellQuest software (Becton Dickinson).
# [1] = tested on: CD19 and CD40 positive lymphocytes (B cells); test: depletion of normal B cells from human PBMC cultures; format: cell-based; settings: 1 μg/ml, 24 to 72 hours, FIG. 20C
# Protocol: Human PBMCs were isolated from whole blood by LSM density centrifugation. […] A portion of the incubation reaction was harvested at 48 hours and again at 72 hours after initiation of the experiment. PBMCs were washed and incubated with FITC anti-CD19, FITC anti-CD40, or FITC anti-CD3 for 45 minutes on ice.
# [2] = tested on: Rituximab-resistant cells (Raji 4RH and RL 4RH); test: direct cytotoxicity in rituximab-resistant cells, annexin/PI; format: cell-based; settings: TRU-016 5 μg/mL, rituximab 10 μg/mL, five-fold excess goat anti-human IgG, 24 hours
# Protocol: Direct cytoxicity was measured by annexin/PI staining and cell viability (percent) was calculated relative to control cells (cells treated with herceptin).
# T1 sequence (P02745 23-245): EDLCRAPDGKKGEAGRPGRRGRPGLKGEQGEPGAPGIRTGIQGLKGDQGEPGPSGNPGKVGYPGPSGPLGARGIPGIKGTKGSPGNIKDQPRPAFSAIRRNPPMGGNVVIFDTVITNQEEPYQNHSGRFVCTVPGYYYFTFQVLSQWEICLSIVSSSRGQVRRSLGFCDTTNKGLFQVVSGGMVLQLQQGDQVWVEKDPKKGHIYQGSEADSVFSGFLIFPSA
# T1 sequence (P02746 28-253): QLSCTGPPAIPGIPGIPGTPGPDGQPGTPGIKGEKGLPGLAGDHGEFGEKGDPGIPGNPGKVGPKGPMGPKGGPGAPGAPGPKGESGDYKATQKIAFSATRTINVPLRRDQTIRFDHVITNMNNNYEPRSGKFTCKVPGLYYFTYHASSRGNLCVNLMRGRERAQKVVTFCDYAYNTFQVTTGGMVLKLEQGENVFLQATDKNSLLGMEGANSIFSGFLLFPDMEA
# T1 sequence (P02747 29-245): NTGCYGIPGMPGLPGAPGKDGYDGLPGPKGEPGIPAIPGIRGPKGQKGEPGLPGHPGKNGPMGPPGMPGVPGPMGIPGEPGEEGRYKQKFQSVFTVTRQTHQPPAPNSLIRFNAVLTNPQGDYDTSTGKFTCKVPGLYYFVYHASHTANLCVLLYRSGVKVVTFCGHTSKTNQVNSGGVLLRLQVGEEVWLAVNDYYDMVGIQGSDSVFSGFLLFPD
substance,measurement,setting,value
G28-1 scFv VH11S(SSC—P)H WCH2 WCH3 [TRU-016],FITC C1q binding,C1q,does not bind well
same,"CDC activity with human complement, single reagent",Ramos B cells,fails to mediate CDC unless aggregates are present
same,Annexin V Positive,"BJAB cells; Bjab, 20 μg/mL SMIP, goat anti-human IgG crosslinking",30.6
same,effect on apoptosis of cell lines,"BJAB cells; in the presence of crosslinking, BJAB, Ramos, Daudi, Table 2",more significant effect on apoptosis of cell lines than TRU-015 alone
same,CDC killing of DHL-4 B cells,DHL-4 B cells,little or no activity alone
same,depletion of B lymphocytes compared to T lymphocytes,[1],capable of specific depletion of CD37 positive B lymphocytes
same,cell toxicity (cell viability relative to herceptin-treated cells),[2],greater cell toxicity than rituximab

# Source: patent US10143748B2, “B-cell reduction using CD37-specific and CD20-specific binding molecules” (Emergent Product Development Seattle, LLC, priority 2005, dated 2018)
